Laboratory results reported in patent publication US7973069B2 (PTC Therapeutics, Inc., priority 2004, dated 2011).
Where “and” joins values, the source holds several entries; their conditions need not be identical. Equal entries are not always repeated.

Test system: HCV replicon
Assay type: cell-based

**Q.** `COc1ccc2c(c1)c(C#N)c(-c1ccc(NC(=O)NC(C)C)cc1)n2C1CCC1` [Compound 1163] was tested. Which IC50 did it give?
**A.** 0.5 to 2 µM

**Q.** Which IC50 does the source give for `N#Cc1c(-c2ccc(NC(=O)OC3CCC3)cc2)n(C2CCC2)c2cc(OCCCCN3CCCC3)ccc12` [Compound 1258] here?
**A.** < 0.5 µM

**Q.** For `CCNC(=O)Nc1ccc(-c2c(C#N)c3ccc(OCC)cc3n2CC2CC2)cc1` [Compound 1156], which IC50 is on record?
**A.** < 0.5 µM

**Q.** Which IC50 does the source give for `N#Cc1c(-c2ccc(NC(=O)NC3CCCC3)cc2)n(C2CCC2)c2cc(OC(F)F)ccc12` [Compound 1190] here?
**A.** 0.5 to 2 µM

**Q.** How did the IC50 turn out when `CCNC(=O)Nc1ccc(-c2c(C#N)c3cc(OC)ccc3n2CC)cc1` [Compound 1009] was run?
**A.** 0.5 to 2 µM

**Q.** How did the IC50 turn out when `CCOc1ccc2c(C#N)c(-c3ccc(NC(=O)C4CC4)cc3)n(CC)c2c1` [Compound 897] was run?
**A.** 0.5 to 2 µM

**Q.** How did the IC50 turn out when `CCn1c(-c2ccc(NC(=O)OCC(C)C)cc2)c(C#N)c2ccc(OC(F)F)cc21` [Compound 1134] was run?
**A.** 0.5 to 2 µM

**Q.** How did the IC50 turn out when `CCOc1ccc2c(C#N)c(-c3ccc(NC(=O)Cc4ccccc4)cc3)n(CC)c2c1` [Compound 900] was run?
**A.** 0.5 to 2 µM

**Q.** For `CCn1c(-c2ccc(NC(=O)NC(C)C)cc2)c(C#N)c2ccc(OC(F)F)cc21` [Compound 1137], which IC50 is on record?
**A.** 0.5 to 2 µM

**Q.** With `CCCS(=O)(=O)Nc1ccc(-c2c(C#N)c3ccc(OCC)cc3n2C2CCC2)cc1` [Compound 932] as the compound, how does the IC50 read?
**A.** < 0.5 µM

**Q.** Which IC50 does the source give for `CC(C)NC(=O)Nc1ccc(-c2c(C#N)c3ccc(OCc4cccnc4)cc3n2C2CCC2)cc1` [Compound 1212] here?
**A.** < 0.5 µM

**Q.** Which IC50 does the source give for `COc1ccc2c(c1)c(C#N)c(-c1ccc(NC(=O)OCC(C)C)cc1)n2C1CCC1` [Compound 1178] here?
**A.** < 0.5 µM

**Q.** `CCNC(=O)Nc1ccc(-c2c(C#N)c3ccc(OC(F)(F)F)cc3n2CC)cc1` [Compound 892] was tested. Which IC50 did it give?
**A.** 0.5 to 2 µM

**Q.** How did the IC50 turn out when `C=CCNC(=O)Nc1ccc(-c2c(C#N)c3ccc(OCCF)cc3n2CC)cc1` [Compound 958] was run?
**A.** 0.5 to 2 µM and < 0.5 µM

**Q.** Which IC50 does the source give for `CCCCNC(=O)Nc1ccc(-c2c(C#N)c3ccc(OCCF)cc3n2CC)cc1` [Compound 957] here?
**A.** < 0.5 µM

**Q.** With `CCCOc1ccc2c(C#N)c(-c3ccc(NC(=O)OC4CCC4)cc3)n(C(C)C)c2c1` [Compound 1247] as the compound, how does the IC50 read?
**A.** < 0.5 µM

**Q.** `CCN(C)CCOc1ccc2c(C#N)c(-c3ccc(NC(=O)NC(C)C)cc3)n(C3CCC3)c2c1` [Compound 1320] was tested. Which IC50 did it give?
**A.** < 0.5 µM

**Q.** How did the IC50 turn out when `COc1ccc2c(c1)c(C#N)c(-c1ccc(NC(=O)OC(C)C)cc1)n2C1CCC1` [Compound 1232] was run?
**A.** < 0.5 µM and 0.5 to 2 µM

**Q.** Which IC50 does the source give for `CCCOc1ccc2c(C#N)c(-c3ccc(NC(=O)OCC4CC4)cc3)n(C(C)C)c2c1` [Compound 1241] here?
**A.** < 0.5 µM

**Q.** `CCCOc1ccc2c(C#N)c(-c3ccc(NC(=O)OCC4(C)CC4)cc3)n(C(C)C)c2c1` [Compound 1243] was tested. Which IC50 did it give?
**A.** < 0.5 µM

**Q.** For `CCn1c(-c2ccc(NS(=O)(=O)CCCCl)cc2)c(C#N)c2ccc(OC(F)F)cc21` [Compound 930], which IC50 is on record?
**A.** < 0.5 µM

**Q.** `CCOc1ccc2c(C#N)c(-c3ccc(N)cc3)n(C3CCC3)c2c1` [Compound 939] was tested. Which IC50 did it give?
**A.** 0.5 to 2 µM

**Q.** With `CCOc1ccc2c(C#N)c(-c3ccc(NC(=O)OCC4CC4)cc3)n(C3CCC3)c2c1` [Compound 1146] as the compound, how does the IC50 read?
**A.** < 0.5 µM

**Q.** For `CCn1c(-c2ccc(N3CCCS3(=O)=O)cc2)c(C#N)c2ccc(OCCn3cccn3)cc21` [Compound 908], which IC50 is on record?
**A.** 0.5 to 2 µM

**Q.** For `CCOc1ccc2c(C#N)c(-c3ccc(NC(=O)OCCCCl)cc3)n(C3CCC3)c2c1` [Compound 977], which IC50 is on record?
**A.** < 0.5 µM

**Q.** With `CCCCn1c(-c2ccc(NC(=O)NCC)cc2)c(C#N)c2ccc(OCC)cc21` [Compound 1016] as the compound, how does the IC50 read?
**A.** 0.5 to 2 µM

**Q.** With `CCNC(=O)Nc1ccc(-c2c(C#N)c3ccc(OC)cc3n2CC)cc1F` [Compound 909] as the compound, how does the IC50 read?
**A.** 0.5 to 2 µM

**Q.** How did the IC50 turn out when `CC(C)NC(=O)Nc1ccc(-c2c(C#N)c3ccc(OCCN(C)C)cc3n2C2CCC2)cc1` [Compound 1319] was run?
**A.** < 0.5 µM

**Q.** How did the IC50 turn out when `CCn1c(-c2ccc(NS(=O)(=O)C3CC3)cc2)c(C#N)c2ccc(OC3CC3)cc21` [Compound 1047] was run?
**A.** < 0.5 µM

**Q.** With `COc1ccc2c(C#N)c(-c3ccc(NC(=O)C4CC4)cc3)n(CC3CC3)c2c1` [Compound 983] as the compound, how does the IC50 read?
**A.** 0.5 to 2 µM

**Q.** With `N#Cc1c(-c2ccc(NC(=O)OCC3CCC3)cc2)n(C2CCC2)c2cc(OCC3CCCO3)ccc12` (stereo not drawn) [Compound 1287] as the compound, how does the IC50 read?
**A.** < 0.5 µM

**Q.** `CCCn1c(-c2cccc(N)c2)c(C#N)c2cc(OCc3ccccc3)ccc21` [Compound 866] was tested. Which IC50 did it give?
**A.** 0.5 to 2 µM

**Q.** With `CCS(=O)(=O)Nc1ccc(-c2c(C#N)c3cc(OC)ccc3n2C2CCC2)cc1` [Compound 1161] as the compound, how does the IC50 read?
**A.** < 0.5 µM and 0.5 to 2 µM

**Q.** With `CC(OC(=O)Nc1ccc(-c2c(C#N)c3ccc(OCC4CCCO4)cc3n2C2CCC2)cc1)C1CC1` (stereo not drawn) [Compound 1281] as the compound, how does the IC50 read?
**A.** < 0.5 µM

**Q.** How did the IC50 turn out when `N#Cc1c(-c2ccc(NC(=O)NC3CCC3)cc2)n(C2CCC2)c2cc(OCCCCN3CCCC3)ccc12` [Compound 1259] was run?
**A.** < 0.5 µM

**Q.** For `CCOc1ccc2c(c1)c(C#N)c(-c1ccc(NC(=O)OC3CCC3)cc1)n2C1CCC1` [Compound 1292], which IC50 is on record?
**A.** < 0.5 µM

**Q.** `CC(C)OC(=O)Nc1ccc(-c2c(C#N)c3ccc(Oc4ncccn4)cc3n2C2CCC2)cc1F` [Compound 2336] was tested. Which IC50 did it give?
**A.** < 0.5 µM

**Q.** With `CCOC(=O)Nc1ccc(-c2c(C#N)c3ccc(OCC)cc3n2CC2CC2)cc1` [Compound 1148] as the compound, how does the IC50 read?
**A.** < 0.5 µM

**Q.** Which IC50 does the source give for `CCCn1c(-c2ccc(NC(=O)OC(C)C)cc2)c(C#N)c2ccc(OCC)cc21` [Compound 1056] here?
**A.** < 0.5 µM

**Q.** For `CCCCn1c(-c2cccc(NC(=O)NCCc3ccccc3)c2)c(C#N)c2ccc(OCC)cc21` [Compound 1024], which IC50 is on record?
**A.** < 0.5 µM

**Q.** How did the IC50 turn out when `CCOc1ccc2c(C#N)c(-c3ccc(NC(C)=O)cc3)n(CC)c2c1` [Compound 895] was run?
**A.** 0.5 to 2 µM

**Q.** With `CC(C)NC(=O)Nc1ccc(-c2c(C#N)c3ccc(OCCN4CCOCC4)cc3n2C2CCC2)cc1` [Compound 1315] as the compound, how does the IC50 read?
**A.** 0.5 to 2 µM

**Q.** For `CCCn1c(-c2ccc(NC(=O)OCCF)cc2)c(C#N)c2ccc(OCC)cc21` [Compound 1064], which IC50 is on record?
**A.** 0.5 to 2 µM

**Q.** How did the IC50 turn out when `CCCS(=O)(=O)Nc1ccc(-c2c(C#N)c3ccc(OCC)cc3n2CC2CCC2)cc1` [Compound 1170] was run?
**A.** 0.5 to 2 µM

**Q.** For `CCOc1ccc2c(c1)c(C#N)c(-c1ccc(NC(=O)OC3CCOC3)cc1)n2C1CCC1` (stereo not drawn) [Compound 1297], which IC50 is on record?
**A.** 0.5 to 2 µM

**Q.** Which IC50 does the source give for `CCOc1ccc2c(C#N)c(-c3ccc(NC(=O)OC(C)(C)C)cc3)n(C3CCC3)c2c1` [Compound 1072] here?
**A.** < 0.5 µM

**Q.** How did the IC50 turn out when `CCNC(=O)Nc1ccc(-c2c(C#N)c3ccc(OCCCN4CCOCC4)cc3n2CC)cc1` [Compound 1124] was run?
**A.** < 0.5 µM and 0.5 to 2 µM

**Q.** Which IC50 does the source give for `CCN1CCN(c2ccc(-c3c(C#N)c4ccc(OC)cc4n3CC)cc2)S1(=O)=O` [Compound 1110] here?
**A.** 0.5 to 2 µM

**Q.** How did the IC50 turn out when `CCn1c(-c2ccc(NC(=O)OCCF)cc2)c(C#N)c2ccc(OCCCN3CCOCC3)cc21` [Compound 1113] was run?
**A.** 0.5 to 2 µM

**Q.** Which IC50 does the source give for `CCOc1ccc2c(C#N)c(-c3ccc(NC(=O)OC4CCOC4)cc3)n(C3CCC3)c2c1` (stereo not drawn) [Compound 1215] here?
**A.** < 0.5 µM

**Q.** For `C=CCNC(=O)Nc1ccc(-c2c(C#N)c3cc(OC)ccc3n2CCC)cc1` [Compound 1001], which IC50 is on record?
**A.** 0.5 to 2 µM

**Q.** Which IC50 does the source give for `CCOc1ccc2c(C#N)c(-c3ccc(NC(=O)CC)cc3)n(CC)c2c1` [Compound 896] here?
**A.** 0.5 to 2 µM

**Q.** How did the IC50 turn out when `CCCOc1ccc2c(C#N)c(-c3ccc(NC(=O)OCC(C)C)cc3)n(C(C)C)c2c1` [Compound 1206] was run?
**A.** < 0.5 µM

**Q.** With `CCOc1ccc2c(C#N)c(-c3ccc(NC(=O)OCc4ccccc4)cc3)n(CC3CC3)c2c1` [Compound 1155] as the compound, how does the IC50 read?
**A.** 0.5 to 2 µM

**Q.** `CCCOC(=O)Nc1ccc(-c2c(C#N)c3ccc(OCCCN4CCOCC4)cc3n2CC)cc1` [Compound 1122] was tested. Which IC50 did it give?
**A.** < 0.5 µM

**Q.** `CCOC(=O)Nc1ccc(-c2c(C#N)c3ccc(OC)cc3n2CC)cc1F` [Compound 876] was tested. Which IC50 did it give?
**A.** 0.5 to 2 µM

**Q.** `CCCOC(=O)Nc1ccc(-c2c(C#N)c3cc(OC)ccc3n2C2CCC2)cc1` [Compound 1177] was tested. Which IC50 did it give?
**A.** < 0.5 µM and 0.5 to 2 µM
